From patent US6355799B1, “Substituted benzene compounds, process for their preparation, and herbicidal and defoliant compositions containing them” (ISK Americas Incorporated, priority 1997, dated 2002)

Columns and labels:
Format in all cases: in vivo
[1] = test system: redroot pigweed (Amaranthus retroflexus, AMARE); experiment: Pre-emerge test, greenhouse herbicide activity screening; details: rated 14 days after application, 0 = no damage, 100 = complete death
Outline: (§1)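 Compounds in acetone were track-sprayed at 187 l/ha, 15–1000 g ai/ha, onto sandy loam pots. Pre-emerge seeds were sown one day before spraying, with surface watering afterwards. Post-emerge plants were at the 2–3 leaf stage and sprayed with 0.25% v/v non-ionic surfactant. Injury was rated 0–100 at 14 days.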

[2] = test system: barnyardgrass (Echinochloa crus-galli, ECHCG); experiment: as above; details: rated 14 days after application, 0 = no damage, 100 = complete death
Outline: (§2)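 Plants grown in 10 cm pots of sandy loam mix received acetone-dissolved compounds through a moving flat-fan nozzle. Doses ranged from 15 to 1000 g ai/ha. Pre-emerge pots were seeded one day earlier, post-emerge pots 8–21 days earlier. Fourteen days on, each pot was graded 0–100 for damage.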

[3] = test system: green foxtail (Setaria viridis, SETVI); experiment: as above; details: rated 14 days after application, 0 = no damage, 100 = complete death
Outline: as §2

[4] = test system: ivyleaf morningglory (Ipomoea hederacea, IPOHE); experiment: as above; details: rated 14 days after application, 0 = no damage, 100 = complete death
Outline: as §2

[5] = test system: johnsongrass (Sorghum halepense, SORHA); experiment: as above; details: rated 14 days after application, 0 = no damage, 100 = complete death
Outline: as §2

[6] = test system: lambsquarters (Chenopodium album, CHEAL); experiment: as above; details: rated 14 days after application, 0 = no damage, 100 = complete death
Outline: as §2

[7] = test system: large crabgrass (Digitaria sanguinalis, DIGSA); experiment: as above; details: rated 14 days after application, 0 = no damage, 100 = complete death
Outline: as §2

[8] = test system: sicklepod (Cassia obtusifolia, CASOB); experiment: as above; details: rated 14 days after application, 0 = no damage, 100 = complete death
Outline: as §2

[9] = test system: velvetleaf (Abutilon theophrasti, ABUTH); experiment: as above; details: rated 14 days after application, 0 = no damage, 100 = complete death
Outline: as §2

[10] = test system: field corn (Zea mays L., var. Dekalb 535, CORN); experiment: Pre-emerge test, crop safety; details: rated 14 days after application, 0 = no damage, 100 = complete death
Outline: as §1

[11] = test system: upland rice (Oryza sp., var. Tebonnet, RICE); experiment: Pre-emerge test, crop safety; details: rated 14 days after application, 0 = no damage, 100 = complete death
Outline: as §1

[12] = test system: barnyardgrass (Echinochloa crus-galli, ECHCG); experiment: Post-emerge test, greenhouse herbicide activity screening; details: post-emerge, 14 days after application, rating scale 0-100
Outline: (§3)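 Rating: 0–100 visual injury, 14 DAA. Application: acetone, 187 l/ha, 15–1000 g ai/ha, flat-fan track sprayer with nozzle 40–45 cm above soil or canopy. Post-emerge runs used 0.25% v/v surfactant on 2–3 leaf plants.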

[13] = test system: green foxtail (Setaria viridis, SETVI); experiment: as above; details: post-emerge, 14 days after application, rating scale 0-100
Outline: as §3

[14] = test system: ivyleaf morningglory (Ipomoea hederacea, IPOHE); experiment: as above; details: post-emerge, 14 days after application, rating scale 0-100
Outline: as §3

[15] = test system: johnsongrass (Sorghum halepense, SORHA); experiment: as above; details: post-emerge, 14 days after application, rating scale 0-100
Outline: as §3

[16] = test system: lambsquarters (Chenopodium album, CHEAL); experiment: as above; details: post-emerge, 14 days after application, rating scale 0-100
Outline: as §3

[17] = test system: large crabgrass (Digitaria sanguinalis, DIGSA); experiment: as above; details: post-emerge, 14 days after application, rating scale 0-100
Outline: as §3

[18] = test system: redroot pigweed (Amaranthus retroflexus, AMARE); experiment: as above; details: post-emerge, 14 days after application, rating scale 0-100
Outline: as §3

[19] = test system: sicklepod (Cassia obtusifolia, CASOB); experiment: as above; details: post-emerge, 14 days after application, rating scale 0-100
Outline: as §3

[20] = test system: velvetleaf (Abutilon theophrasti, ABUTH); experiment: as above; details: post-emerge, 14 days after application, rating scale 0-100
Outline: as §3

[21] = test system: field corn (Zea mays L., var. Dekalb 535, CORN); experiment: Post-emerge test, crop safety; details: post-emerge, 14 days after application, rating scale 0-100
Outline: (§4)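 Each test used a mechanized track sprayer delivering 187 l/ha of acetone solution at 15–1000 g ai/ha. Post-emerge foliage at 2–3 leaves was treated with added 0.25% v/v non-ionic surfactant and bottom-watered only. Injury was assessed on day 14, where 100 means total kill.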

[22] = test system: upland rice (Oryza sp., var. Tebonnet, RICE); experiment: Post-emerge test, crop safety; details: post-emerge, 14 days after application, rating scale 0-100
Outline: as §4

COc1c(Cl)cc(F)c(-n2c(=O)cc(C(F)(F)F)n(N)c2=O)c1NC(=O)c1ccc2ccccc2c1 [2-77]
10: phytotoxicity rating AMARE ([18]; 63 g ai/ha) | phytotoxicity rating CORN ([21]; 250 g ai/ha)
30: Pre-emerge Herbicidal Activity, phytotoxicity rating (0-100), IPOHE ([4]; 250 g ai/ha) | Pre-emerge Herbicidal Activity, phytotoxicity rating (0-100), DIGSA ([7]; 250 g ai/ha) | Pre-emerge Herbicidal Activity, phytotoxicity rating (0-100), CASOB ([8]; 250 g ai/ha) | Pre-emerge Herbicidal Activity, phytotoxicity rating (0-100), ABUTH ([9]; 63 g ai/ha)
40: phytotoxicity rating CASOB ([19]; 63 g ai/ha) | phytotoxicity rating RICE ([22]; 250 g ai/ha)
60: Pre-emerge Herbicidal Activity, phytotoxicity rating (0-100), SETVI ([3]; 250 g ai/ha) | phytotoxicity rating IPOHE ([14]; 63 g ai/ha)
100: Pre-emerge Herbicidal Activity, phytotoxicity rating (0-100), AMARE ([1]; 250 g ai/ha) | Pre-emerge Herbicidal Activity, phytotoxicity rating (0-100), CHEAL ([6]; 250 g ai/ha) | Pre-emerge Herbicidal Activity, phytotoxicity rating (0-100), ABUTH ([9]; 250 g ai/ha) | phytotoxicity rating CHEAL ([16]; 63 g ai/ha) | phytotoxicity rating AMARE ([18]; 250 g ai/ha) | phytotoxicity rating CASOB ([19]; 250 g ai/ha) | phytotoxicity rating ABUTH ([20]; 63 g ai/ha) | phytotoxicity rating ABUTH ([20]; 250 g ai/ha)
90: Pre-emerge Herbicidal Activity, phytotoxicity rating (0-100), CHEAL ([6]; 63 g ai/ha)
80: phytotoxicity rating CHEAL ([16]; 250 g ai/ha)
20: Pre-emerge phytotoxicity rating (0-100), crop damage, RICE ([11]; 250 g ai/ha) | phytotoxicity rating RICE ([22]; 63 g ai/ha)
95: phytotoxicity rating IPOHE ([14]; 250 g ai/ha)
0: Pre-emerge Herbicidal Activity, phytotoxicity rating (0-100), ECHCG ([2]; 63 g ai/ha) | Pre-emerge Herbicidal Activity, phytotoxicity rating (0-100), ECHCG ([2]; 250 g ai/ha) | Pre-emerge Herbicidal Activity, phytotoxicity rating (0-100), SETVI ([3]; 63 g ai/ha) | Pre-emerge Herbicidal Activity, phytotoxicity rating (0-100), IPOHE ([4]; 63 g ai/ha) | Pre-emerge Herbicidal Activity, phytotoxicity rating (0-100), SORHA ([5]; 63 g ai/ha) | Pre-emerge Herbicidal Activity, phytotoxicity rating (0-100), SORHA ([5]; 250 g ai/ha) | Pre-emerge Herbicidal Activity, phytotoxicity rating (0-100), DIGSA ([7]; 63 g ai/ha) | Pre-emerge Herbicidal Activity, phytotoxicity rating (0-100), CASOB ([8]; 63 g ai/ha) | Pre-emerge phytotoxicity rating (0-100), crop damage, CORN ([10]; 63 g ai/ha) | Pre-emerge phytotoxicity rating (0-100), crop damage, CORN ([10]; 250 g ai/ha) | Pre-emerge phytotoxicity rating (0-100), crop damage, RICE ([11]; 63 g ai/ha) | phytotoxicity rating ECHCG ([12]; 63 g ai/ha) | phytotoxicity rating ECHCG ([12]; 250 g ai/ha) | phytotoxicity rating SETVI ([13]; 63 g ai/ha) | phytotoxicity rating SETVI ([13]; 250 g ai/ha) | phytotoxicity rating SORHA ([15]; 63 g ai/ha) | phytotoxicity rating SORHA ([15]; 250 g ai/ha) | phytotoxicity rating DIGSA ([17]; 63 g ai/ha) | phytotoxicity rating DIGSA ([17]; 250 g ai/ha) | phytotoxicity rating CORN ([21]; 63 g ai/ha)
70: Pre-emerge Herbicidal Activity, phytotoxicity rating (0-100), AMARE ([1]; 63 g ai/ha)
